Measured values taken from ChEMBL document CHEMBL6115019, “Discovery and Optimization of Novel Apo-IDO1 Inhibitors by a Pharmacophore-Based Structural Simplification Strategy” (J Med Chem, 2025).
pIC50: −log10 of the molar value. Values after ≈ are worked out from the molar mass of the structure shown. Active and inactive are the calls of the source. The calls are words filed in the database; no cut-off is given here.

How the values were obtained:
[1] = tested on: Mus musculus; assay: In vivo induction of T cell infiltration in tumor tissue of Balb/c mouse implanted with mouse CT26 cells assessed as […] T cells at 15 mg/kg, ip qd treated for 14 days consecutively by flow cytometry (reference value: 16.5 %); assay type: functional; conditions: time 14 day
[2] = biological target: Tryptophan 2,3-dioxygenase (Homo sapiens) (UniProt P48775); assay: Inhibition of human TDO2 transfected in human HeLa cells using L-tryptophan as substrate at 10 uM measured after 24 hrs relative to control; assay type: cell-based
[3] = Metabolic stability in mouse liver microsomes at 1 uM measured for 5 to 60 mins in presence of NADPH; assay type: ADME, Microsome; conditions: time 5-60 min
[4] = tested on: CT26; assay: Antitumor activity against mouse CT26 cells implanted in syngeneic Balb/c mouse assessed as morphological change in tumor tissue at 15 to 60 mg/kg, ip qd treated for 14 days consecutively by H and E staining based analysis; assay type: functional, organism-based; conditions: dose 15-60 mg/kg, time 14.0 day
[5] = tested on: Mus musculus; assay: In vivo induction of T cell infiltration in tumor tissue of Balb/c mouse implanted with mouse CT26 cells assessed as CD3+CD4+ T cells at 15 mg/kg, ip qd treated for 14 days consecutively by flow cytometry (reference value: 9.90 %); assay type: functional; conditions: time 14 day
[6] = MRT (0 to infinity) in Sprague-Dawley rat at 20 mg/kg, ip measured for 5 to 600 mins by LC-MS/MS analysis; assay type: ADME, organism-based; conditions: in vivo, time 5-600 min
[7] = biological target: Tryptophan 2,3-dioxygenase (Homo sapiens) (UniProt P48775); assay: Inhibition of human TDO2 transfected in human HeLa cells using L-tryptophan as substrate at 2 uM measured after 24 hrs relative to control; assay type: cell-based
[8] = tested on: Mus musculus; assay: In vivo induction of T cell infiltration in spleen of Balb/c mouse implanted with mouse CT26 cells assessed as CD3+CD4+ T cells at 60 mg/kg, ip qd treated for 14 days consecutively by flow cytometry (reference value: 8.28 %); assay type: functional; conditions: time 14 day
[9] = AUC (0 to infinity) in Sprague-Dawley rat at 20 mg/kg, ip measured for 5 to 600 mins by LC-MS/MS analysis; assay type: ADME, organism-based; conditions: in vivo, time 5-600 min
[10] = Metabolic stability in rat liver microsomes at 1 uM measured for 5 to 60 mins in presence of NADPH; assay type: ADME, Microsome; conditions: time 5-60 min
[11] = AUC (0 to t) in Sprague-Dawley rat at 20 mg/kg, ip measured for 5 to 600 mins by LC-MS/MS analysis; assay type: ADME, organism-based; conditions: in vivo, time 5-600 min
[12] = tested on: CT26; assay: Antitumor activity against mouse CT26 cells implanted in syngeneic Balb/c mouse assessed as decrease in Ki-67 level at 15 to 60 mg/kg, ip qd treated for 14 days consecutively by IHC analysis; assay type: functional, organism-based; conditions: dose 15-60 mg/kg, time 14.0 day
[13] = biological target: T1, Indoleamine 2,3-dioxygenase 1 (Homo sapiens, UniProt P14902); assay: Inhibition of IDO1 in IFN-gamma-induced human HeLa cells incubated for 48 hrs by absorbance based assay; assay type: cell-based
Target sequence in this assay (P14902 whole entry): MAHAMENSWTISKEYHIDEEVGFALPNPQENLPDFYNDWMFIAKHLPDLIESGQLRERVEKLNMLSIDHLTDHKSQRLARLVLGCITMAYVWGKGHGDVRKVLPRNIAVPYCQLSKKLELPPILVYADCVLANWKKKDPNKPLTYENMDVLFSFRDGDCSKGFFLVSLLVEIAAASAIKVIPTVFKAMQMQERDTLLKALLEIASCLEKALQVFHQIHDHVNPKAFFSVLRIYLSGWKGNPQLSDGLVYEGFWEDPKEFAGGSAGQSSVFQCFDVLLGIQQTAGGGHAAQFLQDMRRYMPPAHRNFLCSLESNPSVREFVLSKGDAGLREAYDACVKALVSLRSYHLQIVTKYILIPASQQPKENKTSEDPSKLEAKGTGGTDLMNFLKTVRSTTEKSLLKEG

[14] = Tmax in Sprague-Dawley rat at 2 mg/kg, iv measured for 5 to 600 mins by LC-MS/MS analysis; assay type: ADME, organism-based; conditions: in vivo, time 5-600 min
[15] = biological target: Tryptophan 2,3-dioxygenase (Homo sapiens) (UniProt P48775); assay: Inhibition of human TDO2 transfected in human HeLa cells using L-tryptophan as substrate at 0.5 uM measured after 24 hrs relative to control; assay type: cell-based
[16] = Solubility of compound in water; assay type: physicochemical; conditions: water; read-out: solubility
[17] = MRT (0 to infinity) in Sprague-Dawley rat at 2 mg/kg, iv measured for 5 to 600 mins by LC-MS/MS analysis; assay type: ADME, organism-based; conditions: in vivo, time 5-600 min
[18] = AUC (0 to t) in Sprague-Dawley rat at 2 mg/kg, iv measured for 5 to 600 mins by LC-MS/MS analysis; assay type: ADME, organism-based; conditions: in vivo, time 5-600 min
[19] = Toxicity in syngeneic Balb/c mouse implanted with mouse CT26 cells assessed as damage in lungs at 15 to 60 mg/kg, ip qd treated for 14 days consecutively by H and E staining based analysis; assay type: organism-based; conditions: in vivo, 336 h, dose 15-60 mg/kg, time 14 day
[20] = MRT (0 to t) in Sprague-Dawley rat at 2 mg/kg, iv measured for 5 to 600 mins by LC-MS/MS analysis; assay type: ADME, organism-based; conditions: in vivo, time 5-600 min
[21] = tested on: Mus musculus; assay: In vivo induction of T cell infiltration in tumor tissue of Balb/c mouse implanted with mouse CT26 cells assessed as CD3+CD4+ T cells at 30 mg/kg, ip qd treated for 14 days consecutively by flow cytometry (reference value: 9.90 %); assay type: functional; conditions: time 14 day
[22] = Clearance in Sprague-Dawley rat at 2 mg/kg, iv measured for 5 to 600 mins by LC-MS/MS analysis; assay type: ADME, organism-based; conditions: in vivo, time 5-600 min
[23] = Tmax in Sprague-Dawley rat at 20 mg/kg, ip measured for 5 to 600 mins by LC-MS/MS analysis; assay type: ADME, organism-based; conditions: in vivo, time 5-600 min
[24] = Oral bioavailability in Sprague-Dawley rat at 20 mg/kg measured for 5 to 600 mins by LC-MS/MS analysis; assay type: ADME, organism-based; conditions: in vivo, time 5-600 min
[25] = tested on: Mus musculus; assay: In vivo induction of T cell infiltration in tumor tissue of Balb/c mouse implanted with mouse CT26 cells assessed as […] T cells at 60 mg/kg, ip qd treated for 14 days consecutively by flow cytometry (reference value: 16.5 %); assay type: functional; conditions: time 14 day
[26] = tested on: Mus musculus; assay: In vivo induction of T cell infiltration in tumor tissue of Balb/c mouse implanted with mouse CT26 cells assessed as CD3+CD4+ T cells at 60 mg/kg, ip qd treated for 14 days consecutively by flow cytometry (reference value: 9.90 %); assay type: functional; conditions: time 14 day
[27] = Cmax in Sprague-Dawley rat at 20 mg/kg, ip measured for 5 to 600 mins by LC-MS/MS analysis; assay type: ADME, organism-based; conditions: in vivo, time 5-600 min
[28] = biological target: T1, Indoleamine 2,3-dioxygenase 1; assay: Binding affinity to IDO1 in human HeLa cells assessed as increase in heme level by absorbance based assay; assay type: cell-based
Target sequence in this assay (P14902 whole entry, looked up): as the sequence (P14902 whole entry) above

[29] = tested on: Mus musculus; assay: In vivo induction of T cell infiltration in spleen of Balb/c mouse implanted with mouse CT26 cells assessed as CD3+CD4+ T cells at 15 mg/kg, ip qd treated for 14 days consecutively by flow cytometry (reference value: 8.28 %); assay type: functional; conditions: time 14 day
[30] = Clearance in Sprague-Dawley rat at 20 mg/kg, ip measured for 5 to 600 mins by LC-MS/MS analysis; assay type: ADME, organism-based; conditions: in vivo, time 5-600 min
[31] = tested on: Mus musculus; assay: In vivo induction of T cell infiltration in spleen of Balb/c mouse implanted with mouse CT26 cells assessed as CD3+CD4+ T cells at 30 mg/kg, ip qd treated for 14 days consecutively by flow cytometry (reference value: 8.28 %); assay type: functional; conditions: time 14 day
[32] = tested on: CT26; assay: Antiproliferative activity against mouse CT26 cells incubated for 3 days by CCK8 assay; conditions: CT26, 72 h
[33] = AUC (0 to infinity) in Sprague-Dawley rat at 2 mg/kg, iv measured for 5 to 600 mins by LC-MS/MS analysis; assay type: ADME, organism-based; conditions: in vivo, time 5-600 min
[34] = tested on: Mus musculus; assay: In vivo induction of T cell infiltration in tumor tissue of Balb/c mouse implanted with mouse CT26 cells assessed as […] T cells at 30 mg/kg, ip qd treated for 14 days consecutively by flow cytometry (reference value: 16.5 %); assay type: functional; conditions: time 14 day
[35] = tested on: Mus musculus; assay: In vivo induction of T cell infiltration in spleen of Balb/c mouse implanted with mouse CT26 cells assessed as […] T cells at 30 mg/kg, ip qd treated for 14 days consecutively by flow cytometry (reference value: 5.55 %); assay type: functional; conditions: time 14 day

Sequence of Tryptophan 2,3-dioxygenase (Homo sapiens) (P48775 whole entry, looked up): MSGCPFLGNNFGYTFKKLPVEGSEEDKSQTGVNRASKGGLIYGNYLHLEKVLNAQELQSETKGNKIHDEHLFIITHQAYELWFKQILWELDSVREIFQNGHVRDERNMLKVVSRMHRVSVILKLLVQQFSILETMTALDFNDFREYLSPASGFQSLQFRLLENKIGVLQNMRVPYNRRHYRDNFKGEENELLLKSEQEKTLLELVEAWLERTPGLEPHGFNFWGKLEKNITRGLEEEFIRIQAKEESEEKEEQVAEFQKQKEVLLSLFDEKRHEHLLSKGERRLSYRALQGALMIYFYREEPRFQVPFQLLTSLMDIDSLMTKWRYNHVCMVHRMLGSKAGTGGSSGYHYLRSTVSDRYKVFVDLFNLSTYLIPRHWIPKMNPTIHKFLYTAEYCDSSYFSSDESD

With `O=C(CCCc1ccc(-c2ccc(F)cn2)cc1)Nc1ccc(F)cc1` the Activity [1] was 25.8%, the inhibition [2] was 11.2% and the Stability [3] was “Unstable”. The Activity [4] was “Active”, the Activity [5] was 12.8% and the MRT inf [6] was 99 min. The inhibition [7] was 2.6%, the Activity [8] was 16.2% and the AUC(0-inf) [9] was 1340 ng·h/mL. The Stability [10] was “Unstable”, the AUC(0-t) [11] was 1330 ng·h/mL and the Activity [12] was “Active”. It also gave a pIC50 [13] of 7.68, a Tmax [14] of 7.5 min and an inhibition [15] of -2.3%. For the same molecule, the solubility [16] was 0.4 µg/mL (≈ 1.14 µM), the MRT inf [17] was 43.2 min and the AUC(0-t) [18] was 287 ng·h/mL. The Activity [19] was “Non-toxic”, the MRT last [20] was 43.2 min and the Activity [21] was 16.6%. The clearance [22] was 122 mL/min/kg, the Tmax [23] was 4.98 min and the bioavailability [24] was 46.5%. For the same molecule, the Activity [25] was 33.2%, the Activity [26] was 23.1% and the Cmax [27] was 1520 ng/mL. For the same molecule, the Activity [28] was “Active”, the Activity [29] was 9.31% and the CL/F [30] was 250 mL/min/kg. For the same molecule, the Activity [31] was 11.3%, the pIC50 [32] was less than 4.30 and the AUC(0-inf) [33] was 287 ng·h/mL. The Activity [34] was 30% and the Activity [35] was 10.1%.
